Results on two compounds are retold here after patent publication US12227500B2, “Substituted pyrrolo[2,3-b]pyridines for suppressing toxic endoplasmic reticulum stress” (THE TRUSTEES OF COLUMBIA UNIVERSITY IN THE CITY OF NEW YORK, priority 2018, dated 2025).

Holding throughout (test): Radiolabeled ATP kinase assay, panel of 60 kinases (Table S5)
Format in all cases: biochemical

Experiment [1] has as its target T1, panel of 60 human kinases (Homo sapiens, UniProt O60285).
T1 construct: purchased Reaction Biology Corp
T1 sequence (O60285 1-661): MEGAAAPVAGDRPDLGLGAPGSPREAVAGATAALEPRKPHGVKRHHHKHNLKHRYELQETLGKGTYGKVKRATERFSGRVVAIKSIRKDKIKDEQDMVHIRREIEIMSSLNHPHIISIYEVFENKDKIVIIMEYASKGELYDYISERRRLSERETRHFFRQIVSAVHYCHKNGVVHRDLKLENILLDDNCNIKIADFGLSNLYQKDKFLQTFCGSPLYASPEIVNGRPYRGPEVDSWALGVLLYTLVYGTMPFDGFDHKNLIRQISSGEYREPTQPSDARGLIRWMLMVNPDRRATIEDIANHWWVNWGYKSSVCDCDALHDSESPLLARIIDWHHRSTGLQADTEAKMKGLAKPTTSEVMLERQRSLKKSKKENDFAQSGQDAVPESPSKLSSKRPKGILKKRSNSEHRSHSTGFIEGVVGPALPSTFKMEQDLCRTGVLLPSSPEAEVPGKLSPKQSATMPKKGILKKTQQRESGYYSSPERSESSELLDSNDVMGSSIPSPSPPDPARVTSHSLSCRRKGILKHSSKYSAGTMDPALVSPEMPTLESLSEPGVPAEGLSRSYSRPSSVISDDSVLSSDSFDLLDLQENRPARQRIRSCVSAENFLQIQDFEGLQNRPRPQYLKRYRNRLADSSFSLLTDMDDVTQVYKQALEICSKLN
The conditions noted are these: ARK5/NUAK1; 0.1 μM; 10 μM ATP; read-out: % Enzyme Activity (relative to DSMO controls). An outline of the steps:
(§1)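 Compounds at two concentrations, 0.1 μM and 0.5 μM, were screened for inhibition of 60 kinases in cell-free assays read out by radiolabeled ATP.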

Experiment [2] concerns the target T2, panel of 60 human kinases (Homo sapiens, UniProt O94921).
T2 construct: purchased Reaction Biology Corp
The settings on record: CDK14/cyclin Y (PFTK1); 0.1 μM; 10 μM ATP; read-out: % Enzyme Activity (relative to DSMO controls). An outline of the steps:
as §1

In experiment [3] the target is T3, panel of 60 human kinases (Homo sapiens, UniProt P00519).
T3 construct: purchased Reaction Biology Corp
T3 sequence (P00519 whole entry): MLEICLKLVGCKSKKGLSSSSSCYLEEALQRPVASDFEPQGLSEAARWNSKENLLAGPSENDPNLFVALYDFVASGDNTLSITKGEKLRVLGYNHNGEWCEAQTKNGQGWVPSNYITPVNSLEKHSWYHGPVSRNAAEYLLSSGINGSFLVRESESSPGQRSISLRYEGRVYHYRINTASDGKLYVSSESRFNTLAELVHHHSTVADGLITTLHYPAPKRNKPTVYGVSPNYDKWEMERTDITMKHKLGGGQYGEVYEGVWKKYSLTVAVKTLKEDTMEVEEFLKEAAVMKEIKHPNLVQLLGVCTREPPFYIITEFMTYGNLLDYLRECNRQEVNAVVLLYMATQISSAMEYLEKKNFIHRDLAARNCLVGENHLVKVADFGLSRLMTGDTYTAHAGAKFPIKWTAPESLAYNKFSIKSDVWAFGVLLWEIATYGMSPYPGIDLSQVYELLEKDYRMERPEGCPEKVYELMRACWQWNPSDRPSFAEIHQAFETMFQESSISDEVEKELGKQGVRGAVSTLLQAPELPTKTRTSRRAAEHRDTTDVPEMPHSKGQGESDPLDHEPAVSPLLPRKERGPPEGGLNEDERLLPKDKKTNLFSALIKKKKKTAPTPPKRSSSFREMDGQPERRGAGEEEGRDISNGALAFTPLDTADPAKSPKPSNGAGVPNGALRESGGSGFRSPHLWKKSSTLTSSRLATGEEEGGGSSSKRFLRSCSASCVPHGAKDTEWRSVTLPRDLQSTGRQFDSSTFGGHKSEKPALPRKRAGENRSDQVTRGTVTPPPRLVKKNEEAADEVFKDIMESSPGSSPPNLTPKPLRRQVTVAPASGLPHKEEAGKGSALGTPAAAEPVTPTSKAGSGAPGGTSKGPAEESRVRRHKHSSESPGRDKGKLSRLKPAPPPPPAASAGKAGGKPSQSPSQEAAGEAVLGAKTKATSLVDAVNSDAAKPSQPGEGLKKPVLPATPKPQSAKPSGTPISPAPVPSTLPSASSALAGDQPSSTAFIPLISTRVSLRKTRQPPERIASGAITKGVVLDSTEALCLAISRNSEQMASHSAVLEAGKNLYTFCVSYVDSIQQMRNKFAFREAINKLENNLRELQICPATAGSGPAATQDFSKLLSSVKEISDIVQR
The settings on record: ABL1; 0.1 μM; 10 μM ATP; read-out: % Enzyme Activity (relative to DSMO controls). The method, boiled down:
as §1

In experiment [4] the target is T4, panel of 60 human kinases (Homo sapiens, UniProt P22607).
T4 construct: purchased Reaction Biology Corp
T4 sequence (P22607 23-806): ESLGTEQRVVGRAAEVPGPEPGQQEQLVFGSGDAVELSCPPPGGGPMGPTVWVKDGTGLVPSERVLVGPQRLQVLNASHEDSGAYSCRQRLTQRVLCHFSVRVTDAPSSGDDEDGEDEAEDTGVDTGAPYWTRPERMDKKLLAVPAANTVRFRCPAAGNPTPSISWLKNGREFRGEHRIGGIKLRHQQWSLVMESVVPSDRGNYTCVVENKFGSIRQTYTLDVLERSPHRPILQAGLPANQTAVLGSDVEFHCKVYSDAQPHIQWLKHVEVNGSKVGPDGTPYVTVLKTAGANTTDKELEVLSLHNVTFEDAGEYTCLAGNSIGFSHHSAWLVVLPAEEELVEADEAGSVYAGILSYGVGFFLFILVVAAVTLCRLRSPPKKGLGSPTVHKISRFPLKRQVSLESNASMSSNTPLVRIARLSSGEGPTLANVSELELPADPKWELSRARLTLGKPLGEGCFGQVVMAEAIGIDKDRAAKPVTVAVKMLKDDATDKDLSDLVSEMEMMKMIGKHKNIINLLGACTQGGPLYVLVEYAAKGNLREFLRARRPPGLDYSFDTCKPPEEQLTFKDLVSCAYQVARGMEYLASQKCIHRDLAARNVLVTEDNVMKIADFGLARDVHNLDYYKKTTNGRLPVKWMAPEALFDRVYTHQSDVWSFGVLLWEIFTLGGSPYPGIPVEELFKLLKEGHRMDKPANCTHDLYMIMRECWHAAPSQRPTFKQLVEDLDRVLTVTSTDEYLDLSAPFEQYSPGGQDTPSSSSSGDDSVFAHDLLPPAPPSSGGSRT
The conditions noted are these: FGFR3; 0.1 μM; 10 μM ATP; read-out: % Enzyme Activity (relative to DSMO controls). An outline of the steps:
as §1

Experiment [5] addresses T5, panel of 60 human kinases (Homo sapiens, UniProt Q00534).
T5 construct: purchased Reaction Biology Corp
The settings on record: 0.1 μM, 10 μM ATP, read-out: % Enzyme Activity (relative to DSMO controls). The method, boiled down: as §1

Experiment [6] concerns the target T6, panel of 60 human kinases (Homo sapiens, UniProt Q13470).
T6 construct: purchased Reaction Biology Corp
T6 sequence (Q13470 1-666): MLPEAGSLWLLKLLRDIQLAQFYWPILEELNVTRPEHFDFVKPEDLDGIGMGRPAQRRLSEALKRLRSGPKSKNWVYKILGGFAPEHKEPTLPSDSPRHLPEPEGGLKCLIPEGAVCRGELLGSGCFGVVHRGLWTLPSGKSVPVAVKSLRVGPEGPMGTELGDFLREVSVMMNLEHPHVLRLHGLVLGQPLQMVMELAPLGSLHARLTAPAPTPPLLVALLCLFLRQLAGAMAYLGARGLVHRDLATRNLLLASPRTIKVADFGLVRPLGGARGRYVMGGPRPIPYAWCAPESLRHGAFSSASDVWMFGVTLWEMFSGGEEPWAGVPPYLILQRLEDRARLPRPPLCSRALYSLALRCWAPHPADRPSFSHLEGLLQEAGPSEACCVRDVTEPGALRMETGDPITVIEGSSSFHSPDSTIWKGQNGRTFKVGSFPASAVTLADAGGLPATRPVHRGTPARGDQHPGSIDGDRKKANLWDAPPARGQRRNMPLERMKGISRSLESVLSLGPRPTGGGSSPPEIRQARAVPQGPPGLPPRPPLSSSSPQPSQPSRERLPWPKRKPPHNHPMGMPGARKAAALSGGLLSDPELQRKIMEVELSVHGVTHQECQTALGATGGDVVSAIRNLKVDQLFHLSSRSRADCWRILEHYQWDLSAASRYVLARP
The settings on record: TNK1; 0.1 μM; 10 μM ATP; read-out: % Enzyme Activity (relative to DSMO controls). An outline of the steps:
as §1

Experiment [7] has as its target T7, panel of 60 human kinases (Homo sapiens, UniProt Q13627).
T7 construct: purchased Reaction Biology Corp
The conditions noted are these: DYRK/RK1A; 0.1 μM; 10 μM ATP; read-out: % Enzyme Activity (relative to DSMO controls). The method, boiled down: as §1

In experiment [8] the target is T8, panel of 60 human kinases (Homo sapiens, UniProt Q8N4C8).
T8 construct: purchased Reaction Biology Corp
T8 sequence (Q8N4C8 whole entry): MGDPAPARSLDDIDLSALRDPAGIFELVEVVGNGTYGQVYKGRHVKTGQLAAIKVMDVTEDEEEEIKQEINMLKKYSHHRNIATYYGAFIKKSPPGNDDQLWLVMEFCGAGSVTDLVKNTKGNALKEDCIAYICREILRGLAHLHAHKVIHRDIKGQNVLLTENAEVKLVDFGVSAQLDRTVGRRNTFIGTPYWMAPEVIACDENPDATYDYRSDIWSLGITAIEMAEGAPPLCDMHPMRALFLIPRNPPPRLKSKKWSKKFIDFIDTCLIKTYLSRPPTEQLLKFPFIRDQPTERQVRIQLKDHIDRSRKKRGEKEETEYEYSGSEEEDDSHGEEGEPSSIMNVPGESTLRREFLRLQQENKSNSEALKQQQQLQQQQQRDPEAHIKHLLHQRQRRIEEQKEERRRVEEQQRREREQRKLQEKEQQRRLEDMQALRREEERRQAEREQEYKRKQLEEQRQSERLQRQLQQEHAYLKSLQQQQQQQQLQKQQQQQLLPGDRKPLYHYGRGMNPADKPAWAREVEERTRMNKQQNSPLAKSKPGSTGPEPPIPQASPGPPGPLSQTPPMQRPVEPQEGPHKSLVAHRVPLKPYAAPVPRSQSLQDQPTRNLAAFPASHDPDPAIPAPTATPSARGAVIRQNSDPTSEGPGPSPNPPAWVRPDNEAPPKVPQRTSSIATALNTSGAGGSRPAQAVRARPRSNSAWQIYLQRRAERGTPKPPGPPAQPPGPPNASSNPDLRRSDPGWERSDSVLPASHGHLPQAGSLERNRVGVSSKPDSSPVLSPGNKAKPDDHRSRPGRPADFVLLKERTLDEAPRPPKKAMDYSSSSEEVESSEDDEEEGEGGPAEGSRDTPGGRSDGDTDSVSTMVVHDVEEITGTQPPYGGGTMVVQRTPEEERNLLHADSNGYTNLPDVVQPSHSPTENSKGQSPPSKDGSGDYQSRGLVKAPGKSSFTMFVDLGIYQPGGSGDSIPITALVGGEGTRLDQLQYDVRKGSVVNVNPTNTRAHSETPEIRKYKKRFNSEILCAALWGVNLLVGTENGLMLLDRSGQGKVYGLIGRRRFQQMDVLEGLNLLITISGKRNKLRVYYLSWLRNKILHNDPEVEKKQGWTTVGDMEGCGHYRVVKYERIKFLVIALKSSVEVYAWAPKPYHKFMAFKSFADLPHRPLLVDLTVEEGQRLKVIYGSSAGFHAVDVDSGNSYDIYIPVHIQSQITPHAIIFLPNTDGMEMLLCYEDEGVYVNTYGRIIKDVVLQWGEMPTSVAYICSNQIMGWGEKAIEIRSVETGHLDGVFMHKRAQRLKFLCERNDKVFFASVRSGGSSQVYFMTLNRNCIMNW
The settings on record: MINK/MINK1; 0.1 μM; 10 μM ATP; read-out: % Enzyme Activity (relative to DSMO controls). An outline of the steps:
as §1

The target of experiment [9] is T9, panel of 60 human kinases (Homo sapiens, UniProt Q9UQB9).
T9 construct: purchased Reaction Biology Corp
T9 sequence (Q9UQB9 1-309): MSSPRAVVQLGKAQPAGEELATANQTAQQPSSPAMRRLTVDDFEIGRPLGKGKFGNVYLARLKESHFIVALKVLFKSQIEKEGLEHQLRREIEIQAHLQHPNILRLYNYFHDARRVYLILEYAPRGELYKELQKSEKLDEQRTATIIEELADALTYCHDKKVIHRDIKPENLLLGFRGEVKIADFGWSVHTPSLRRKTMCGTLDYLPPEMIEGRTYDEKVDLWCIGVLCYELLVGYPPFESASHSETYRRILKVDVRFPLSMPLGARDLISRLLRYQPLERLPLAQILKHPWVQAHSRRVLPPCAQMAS
The settings on record: Aurora C; 0.1 μM; 10 μM ATP; read-out: % Enzyme Activity (relative to DSMO controls). The method, boiled down:
as §1

Experiment [10] addresses T10, panel of 60 human kinases (Homo sapiens, UniProt Q9Y4K4).
T10 construct: purchased Reaction Biology Corp
The settings on record: KHS/MAPK4K5; 0.1 μM; 10 μM ATP; read-out: % Enzyme Activity (relative to DSMO controls). The method, boiled down:
as §1

Each structure is given as a SMILES string. Read-outs that look alike come from different tables or passages of the source.

T5 sequence (Q00534 whole entry): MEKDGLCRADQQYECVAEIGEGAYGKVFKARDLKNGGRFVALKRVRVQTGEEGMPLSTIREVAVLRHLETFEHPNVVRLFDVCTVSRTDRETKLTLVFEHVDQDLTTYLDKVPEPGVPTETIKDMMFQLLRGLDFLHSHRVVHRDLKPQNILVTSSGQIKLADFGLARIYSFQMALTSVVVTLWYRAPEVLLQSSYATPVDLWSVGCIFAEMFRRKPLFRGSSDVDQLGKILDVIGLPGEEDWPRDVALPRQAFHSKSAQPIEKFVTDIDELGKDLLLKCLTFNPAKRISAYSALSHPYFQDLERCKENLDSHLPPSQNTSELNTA
T10 sequence (Q9Y4K4 whole entry): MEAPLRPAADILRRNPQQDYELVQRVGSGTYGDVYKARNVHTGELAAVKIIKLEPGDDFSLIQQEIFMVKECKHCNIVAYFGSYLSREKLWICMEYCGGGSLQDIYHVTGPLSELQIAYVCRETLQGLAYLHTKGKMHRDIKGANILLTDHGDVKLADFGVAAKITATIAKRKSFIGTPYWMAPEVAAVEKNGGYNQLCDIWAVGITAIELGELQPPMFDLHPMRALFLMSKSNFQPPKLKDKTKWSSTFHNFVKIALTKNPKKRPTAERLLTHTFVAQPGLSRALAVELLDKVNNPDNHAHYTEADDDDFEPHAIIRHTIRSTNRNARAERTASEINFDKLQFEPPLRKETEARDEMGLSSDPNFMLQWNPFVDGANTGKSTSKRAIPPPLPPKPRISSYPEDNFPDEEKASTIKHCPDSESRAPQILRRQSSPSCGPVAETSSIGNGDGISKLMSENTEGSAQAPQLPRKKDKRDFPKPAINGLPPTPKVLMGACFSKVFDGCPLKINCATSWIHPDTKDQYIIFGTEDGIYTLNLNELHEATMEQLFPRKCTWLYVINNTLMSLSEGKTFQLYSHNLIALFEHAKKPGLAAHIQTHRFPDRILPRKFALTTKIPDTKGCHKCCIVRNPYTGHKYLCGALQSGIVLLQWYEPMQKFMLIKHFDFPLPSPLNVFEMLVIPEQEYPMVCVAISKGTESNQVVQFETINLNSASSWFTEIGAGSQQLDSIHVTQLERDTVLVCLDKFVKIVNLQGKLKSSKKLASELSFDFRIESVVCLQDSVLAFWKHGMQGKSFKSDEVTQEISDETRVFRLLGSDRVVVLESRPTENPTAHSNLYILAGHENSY
T2 sequence (O94921 whole entry): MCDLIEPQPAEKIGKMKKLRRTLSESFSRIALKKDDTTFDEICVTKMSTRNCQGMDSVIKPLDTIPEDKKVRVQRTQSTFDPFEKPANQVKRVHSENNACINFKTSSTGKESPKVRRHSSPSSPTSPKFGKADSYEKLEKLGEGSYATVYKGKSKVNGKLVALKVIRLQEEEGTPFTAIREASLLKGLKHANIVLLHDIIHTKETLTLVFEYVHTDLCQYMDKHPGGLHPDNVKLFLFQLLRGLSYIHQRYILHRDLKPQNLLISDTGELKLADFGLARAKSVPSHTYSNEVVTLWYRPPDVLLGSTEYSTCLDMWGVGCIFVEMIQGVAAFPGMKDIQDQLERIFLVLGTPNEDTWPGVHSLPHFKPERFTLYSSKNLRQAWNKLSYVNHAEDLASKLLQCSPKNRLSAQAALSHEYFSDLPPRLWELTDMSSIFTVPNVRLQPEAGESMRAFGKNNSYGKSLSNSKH

Consider `COc1ccccc1-c1c[nH]c2ncc(-c3ccc(CN4CCN(C)CC4)cc3)cc12` [Compound 7at, 3-(2-Methoxyphenyl)-5-(4-((4-methylpiperazin-1-yl)methyl)phenyl)-1H-pyrrolo[2,3-b]pyridine], for which the remaining activity at 0.1 µM in experiment [1] was 22.9%; in [2] it was 76.4%; in [3] it was 19%; in experiment [4] it was 82.1%; in experiment [5] (CDK6/cyclin D1) it was 7.23%; in experiment [5] (CDK6/cyclin D3), 46%. For the same compound, the remaining activity at 0.1 µM in [6] was 38.4%; in experiment [7] it was 57.4%; in experiment [8] it was 9.84%; in experiment [9], 107%; in experiment [10], 3.35%.
As to `CN1CCN(Cc2ccc(-c3cnc4[nH]cc(-c5ccccc5Cl)c4c3)cc2)CC1` [Compound 7as, 3-(2-Chlorophenyl)-5-(4-((4-methylpiperazin-1-yl)methyl)phenyl)-1H-pyrrolo[2,3-b]pyridine], the remaining activity at 0.1 µM stood at 4.44% in [1]; 85% in [2]; 5.92% in [3]; 42.3% in [4]; 15.6% in experiment [5] (CDK6/cyclin D1); 36.1% in [5] (CDK6/cyclin D3). The remaining activity at 0.1 µM in experiment [6] came out at 33.9%; in experiment [7], 42%; in experiment [8], 0.19%; in experiment [9], 94.2%; in experiment [10], 0.89%.
